Measurements as given in ChEMBL document CHEMBL4483862, “Open-source discovery of chemical leads for next-generation chemoprotective antimalarials” (2018).

System: Plasmodium berghei
Experiment: Luciferase/luciferin-expressing antifolate-resistant parasites were used to infect a culture of HepG2 cells that were pre-incubated with compounds. Infected hepatocytes emit light due to the luciferase reaction. Assay results are presented as the percent inhibition of light emission compared to control. […]
Format: functional
Conditions: sporozoite; for IC90: read-out: LUCIFERASE INFECTION ASSAY - IC90
[1] = read-out: LUCIFERASE INFECTION ASSAY - IC50

Compound	IC90 [µM]	IC50 [1] [µM]	also measured
O=C(Nc1ccccc1C(=O)OCC(=O)N1c2ccccc2Sc2ccccc21)c1ccco1	> 10	–	IC50 (FFLUC_HILL_SLOPE 10.6, FFLUC_R_SQUARED 0.388, PBLUC_HILL_SLOPE 2.08, PBLUC_R_SQUARED 0.607, read-out: LUCIFERASE INFECTION ASSAY - IC50): 7.58 µM
CN(C)c1ccc(-c2cc3cnc(Nc4cccc(Oc5ccccc5)c4)cc3n2C)cc1	6.91	–	IC50 (FFLUC_HILL_SLOPE 1.74, FFLUC_R_SQUARED 0.698, HEPG2TOX_HILL_SLOPE 44.7, HEPG2TOX_R_SQUARED 0.888, PBLUC_HILL_SLOPE 2.41, PBLUC_R_SQUARED 0.586, read-out: LUCIFERASE INFECTION ASSAY - IC50): 2.77 µM
OC(Cc1ccccc1)(c1ccccc1)c1ccccc1/N=C/c1ccc(Cl)c(Cl)c1 (stereo not given)	> 7.39	> 7.39	–
COc1ccccc1N1C(=O)C=CC1=O	> 16.2	> 16.2	–
Cc1cc(C)c(C)c(S(=O)(=O)N2CCC(C(=O)Nc3nnc(-c4ccccc4)o3)CC2)c1C	> 10	–	IC50 (HEPG2TOX_HILL_SLOPE 7.53, HEPG2TOX_R_SQUARED 0.782, PBLUC_HILL_SLOPE 3.42, PBLUC_R_SQUARED 0.39, read-out: LUCIFERASE INFECTION ASSAY - IC50): 6.89 µM
Cc1cc(-c2cn3c(-c4ccc5ncccc5c4)cnc3cn2)cc(C)c1O	> 9.01	8.6	–
O=C(CSc1nnc(-c2ccncc2)[nH]1)NC1CCCc2ccccc21 (stereo not given)	> 10	> 10	–
Cc1noc(N)c1-c1nc(-c2cccc(C(F)(F)F)c2)cs1	> 10.1	–	IC50 (HEPG2TOX_HILL_SLOPE 3.53, HEPG2TOX_R_SQUARED 0.703, read-out: LUCIFERASE INFECTION ASSAY - IC50): > 10.1 µM
CCN(CC)CCNC(=O)c1ccc(NC(=O)c2cccc(S(=O)(=O)N3CCc4ccccc43)c2)cc1	> 10	–	IC50 (PBLUC_HILL_SLOPE 8.86, PBLUC_R_SQUARED 0.0114, read-out: LUCIFERASE INFECTION ASSAY - IC50): > 10 µM
N#C/C(=C(/Oc1ccc(Cl)cc1Cl)C(F)(F)F)c1ccccc1	> 9.21	–	IC50 (HEPG2TOX_HILL_SLOPE 9.57, HEPG2TOX_R_SQUARED 0.894, PBLUC_HILL_SLOPE 12.7, PBLUC_R_SQUARED 0.611, read-out: LUCIFERASE INFECTION ASSAY - IC50): 8.77 µM
C=CCn1c(COc2cc(C)ccc2C(C)C)nnc1SCC(=O)NCC12CC3CC(CC(C3)C1)C2	> 10	–	IC50 (PBLUC_HILL_SLOPE 17.6, PBLUC_R_SQUARED 0.542, read-out: LUCIFERASE INFECTION ASSAY - IC50): 9.43 µM
Cc1cc(NC(C)C)n2ncc(-c3ccc(F)cc3)c2n1	5.57	–	IC50 (FFLUC_HILL_SLOPE 0.941, FFLUC_R_SQUARED 0.965, HEPG2TOX_HILL_SLOPE 0.182, HEPG2TOX_R_SQUARED 0.624, PBLUC_HILL_SLOPE 0.618, PBLUC_R_SQUARED 0.897, read-out: LUCIFERASE INFECTION ASSAY - IC50): 0.16 µM
O=C(NCc1cc(C(F)(F)F)cc(C(F)(F)F)c1)c1cc(Cl)cc(Cl)c1	> 7.93	> 7.93	–
Cc1cccc2sc(C(=O)NCc3cccc(NS(N)(=O)=O)c3)c(Cl)c12	1.3	–	IC50 (PBLUC_HILL_SLOPE 16.9, PBLUC_R_SQUARED 0.264, read-out: LUCIFERASE INFECTION ASSAY - IC50): 1.14 µM
FC(F)(F)Oc1cccc(-c2ccc3ncc(-c4cccnc4)n3n2)c1	3.34	–	IC50 (PBLUC_HILL_SLOPE 3.42, PBLUC_R_SQUARED 0.748, read-out: LUCIFERASE INFECTION ASSAY - IC50): 1.76 µM
COc1cc(/C=C/C(=O)c2ccc3[nH]c(=O)[nH]c3c2)cc(Cl)c1OC(F)F	> 10	–	IC50 (PBLUC_HILL_SLOPE 1.43, PBLUC_R_SQUARED 0.612, read-out: LUCIFERASE INFECTION ASSAY - IC50): 6.07 µM
COc1cc(NC(=O)CN2CC=C(c3c[nH]c4ccccc34)CC2)cc(OC)c1OC	> 10	> 10	–
O=C(CSCCCN1CCN(c2cccc(Cl)c2)CC1)N/N=C/c1ccc(Cl)cc1	> 7.09	> 7.09	–
COc1ccc(CC(N)c2csc(NC(=O)c3cc(C(C)(C)C)oc3C)n2)cc1 (stereo not given)	4.39	2.91	–
Cc1cc(CN(C)CC(=O)Nc2sc3c(c2C(=O)Nc2ccc(Cl)cc2)CCCC3)no1	> 10	–	IC50 (FFLUC_HILL_SLOPE 4.26, FFLUC_R_SQUARED 0.612, PBLUC_HILL_SLOPE 24.8, PBLUC_R_SQUARED 0.242, read-out: LUCIFERASE INFECTION ASSAY - IC50): 9.19 µM
